Laboratory results reported in patent US5654427A, “Indolocarbazole derivatives to treat a pathological condition of the prostate” (Kyowa Hakko Kogyo Co., Ltd., priority 1995, dated 1997).

Biological target: T1, trkA (Rattus norvegicus, UniProt P35739)
T1 construct: are rat pheochromocytoma cells that bear trkA; host or cells: PC12 rat pheochromocytoma cells
Test: inhibition of NGF-stimulated trk autophosphorylation (tyrosine phosphorylation) in PC12 cells, anti-phosphotyrosine Western blot; as to trk 100 nM (inhibition of phosphorylation): key: +: Inhibited phosphorylation; -: Did not inhibit phosphorylation; as to trk 500 nM (inhibition of phosphorylation): key: +: Inhibited phosphorylation; -: Did not inhibit phosphorylation
Format: cell-based
Settings: for trk 100 nM (inhibition of phosphorylation) / phosphorylation response (FIG. 1, spot): 100 nM compound; for trk 100 nM (inhibition of phosphorylation) / trk 500 nM (inhibition of phosphorylation): NGF 50 ng/ml; for trk 500 nM (inhibition of phosphorylation): 500 nM compound; for phosphorylation response (FIG. 1, spot): NGF, Western blot FIG. 1
Procedure: Candidate compounds for the inhibition of prostate cell proliferation were selected according to their ability to inhibit the tyrosine kinase activity associated with the trks.
PC12 cells (ATCC #CRL1721) are rat pheochromocytoma cells that bear trkA and differentiate into sympathetic neurons when treated with NGF. […] Cells were incubated at 37° C. in a humidified atmosphere of 10% CO2 and 90% air. […] The cells in each culture were disrupted and cell lysates were prepared by standard techniques known to those skilled in the art. Each lysate was incubated with anti-trk antibody whereby immune complexes were formed. […] The immune complexes were collected on Protein A-Sepharose beads, separated by SDS-polyacrylamide gel electrophoresis (SDS-PAGE), and transferred to polyvinylidene difluoride (PVDF) membranes (Millipore Corp., Bedford, Mass.), using techniques well known to those skilled in the art. The membranes were incubated with anti-phosphotyrosine antibody, which binds to the tyrosine phosphorylated trks, but not to the un-phosphorylated form of trks. Proteins bound to anti-phosphotyrosine antibody were visualized with enhanced chemiluminescence (ECL, Amersham), and are shown as dark "spots" in FIG. 1.
Measurement of the autophosphorylation of trk provides a good index of trk tyrosine kinase activity, and thereby of trk stimulation.
Inhibition was indicated by the absence of a spot migrating with the trk marker shown at the left side of the figure. Partial inhibition was indicated by a spot of reduced size.

T1 sequence (P35739 33-799): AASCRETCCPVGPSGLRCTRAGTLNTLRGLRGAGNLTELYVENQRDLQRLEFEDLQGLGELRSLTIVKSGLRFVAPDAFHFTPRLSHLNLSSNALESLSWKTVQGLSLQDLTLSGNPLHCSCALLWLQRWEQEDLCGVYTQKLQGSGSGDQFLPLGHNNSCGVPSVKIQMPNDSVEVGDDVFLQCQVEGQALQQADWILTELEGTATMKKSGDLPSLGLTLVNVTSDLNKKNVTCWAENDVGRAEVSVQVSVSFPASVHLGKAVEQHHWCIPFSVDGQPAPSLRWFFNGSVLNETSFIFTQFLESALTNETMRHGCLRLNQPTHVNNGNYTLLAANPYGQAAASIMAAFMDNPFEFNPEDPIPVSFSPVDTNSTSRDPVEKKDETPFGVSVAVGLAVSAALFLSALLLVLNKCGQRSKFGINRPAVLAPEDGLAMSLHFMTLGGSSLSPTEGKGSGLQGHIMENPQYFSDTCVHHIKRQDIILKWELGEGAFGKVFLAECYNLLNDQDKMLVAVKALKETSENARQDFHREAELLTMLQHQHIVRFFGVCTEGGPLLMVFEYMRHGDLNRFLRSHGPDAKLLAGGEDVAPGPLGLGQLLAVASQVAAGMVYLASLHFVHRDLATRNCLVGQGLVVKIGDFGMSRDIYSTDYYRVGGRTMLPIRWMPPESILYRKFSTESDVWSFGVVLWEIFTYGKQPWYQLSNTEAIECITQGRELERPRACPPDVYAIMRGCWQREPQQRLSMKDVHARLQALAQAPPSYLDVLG

| trk 100 nM (inhibition of phosphorylation) | trk 500 nM (inhibition of phosphorylation) | phosphorylation response (FIG. 1, spot) | SMILES |
| --- | --- | --- | --- |
| + | + |  | COC(=O)C1(O)CC2OC1(C)n1c3ccccc3c3c4c(c5c6cc(C=NNC(=N)N)ccc6n2c5c31)C(=O)NC4 (stereo not shown) [Compound I-73] |
| - | + |  | COC(=O)C1(O)CC2OC1(C)n1c3ccccc3c3c4c(c5c6cc(CSc7ccccn7)ccc6n2c5c31)C(=O)NC4 (stereo not shown) [Compound I-60] |
| + |  |  | CC12OC(CC1(O)CO)n1c3ccc(Br)cc3c3c4c(c5c6ccccc6n2c5c31)CNC4=O (stereo not shown) [Compound I-36] |
| + |  |  | CC(=O)OC1(C(=O)NCC(C)C)CC2OC1(C)n1c3ccccc3c3c4c(c5c6ccccc6n2c5c31)C(=O)NC4 (stereo not shown) [Compound I-55] |
| + | + |  | COC(=O)C1(O)CC2OC1(C)n1c3ccccc3c3c4c(c5c6cc(CSc7nc8ccccc8[nH]7)ccc6n2c5c31)C(=O)NC4 (stereo not shown) [Compound I-67] |
| - | + |  | COC(=O)C1(O)CC2OC1(C)n1c3ccc(Cl)cc3c3c4c(c5c6cc(Cl)ccc6n2c5c31)C(=O)NC4 (stereo not shown) [Compound I-44] |
| - | + |  | COC(=O)C1(O)CC2OC1(C)n1c3ccccc3c3c4c(c5c6cc(C[S+]([O-])c7ccccn7)ccc6n2c5c31)C(=O)NC4 (stereo not shown) [Compound I-64] |
| + | + |  | COC(=O)C1(O)CC2OC1(C)n1c3ccccc3c3c4c(c5c6cc(C=NN7CCOCC7)ccc6n2c5c31)C(=O)NC4 (stereo not shown) [Compound I-74] |
| + | + |  | COC(=O)C1(O)CC2OC1(C)n1c3ccccc3c3c4c(c5c6cc(C=NN7CCCC7)ccc6n2c5c31)C(=O)NC4 (stereo not shown) [Compound I-69] |
| + |  |  | CC12OC(CC1(O)C[S+]([O-])c1ccccn1)n1c3ccccc3c3c4c(c5c6ccccc6n2c5c31)CNC4=O (stereo not shown) [Compound I-40] |

Continued, compound first:

| SMILES | trk 100 nM (inhibition of phosphorylation) | trk 500 nM (inhibition of phosphorylation) | phosphorylation response (FIG. 1, spot) |
| --- | --- | --- | --- |
| CC12OC(CC1(O)C=NNC(=N)N)n1c3ccccc3c3c4c(c5c6ccccc6n2c5c31)CNC4=O (stereo not shown) [Compound I-29] | - | + |  |
| COC(=O)C1(O)CC2OC1(C)n1c3ccccc3c3c4c(c5c6cc(C)ccc6n2c5c31)C(=O)NC4 (stereo not shown) [Compound I-38] | + |  |  |
| CC12OC(CC13CNC(=O)O3)n1c3ccccc3c3c4c(c5c6ccccc6n2c5c31)CNC4=O (stereo not shown) [Compound I-7] | + |  | absent (no spot seen) |
| CCNC(=O)C1(O)CC2OC1(C)n1c3ccccc3c3c4c(c5c6ccccc6n2c5c31)C(=O)NC4 (stereo not shown) [Compound I-9] | + |  | absent (no spot seen) |
| CC12OC(CC1(O)C=NNC1=NCCN1)n1c3ccccc3c3c4c(c5c6ccccc6n2c5c31)CNC4=O (stereo not shown) [Compound I-30] | - | + |  |
| COC(=O)C1(O)CC2OC1(C)n1c3ccccc3c3c4c(c5c6cc(NC(=O)Nc7ccccc7)ccc6n2c5c31)C(=O)NC4 (stereo not shown) [Compound I-27] | - | + |  |
| COC(=O)C1(OC)CC2OC1(C)n1c3ccccc3c3c4c(c5c6ccccc6n2c5c31)C(=O)NC4 (stereo not shown) [Compound I-53] | + |  |  |
| CC12OC(CC1(O)C=NO)n1c3ccccc3c3c4c(c5c6ccccc6n2c5c31)CNC4=O (stereo not shown) [Compound I-28] | + |  |  |
| CC1(C)OCC2(CC3OC2(C)n2c4ccccc4c4c5c(c6c7ccccc7n3c6c42)C(=O)NC5)O1 (stereo not shown) [Compound I-13] | + | + |  |
| COC(=O)CC1(O)CC2OC1(C)n1c3ccccc3c3c4c(c5c6ccccc6n2c5c31)C(=O)NC4 (stereo not shown) [Compound I-31] | + |  |  |
| CC12OC(CC1O)n1c3ccccc3c3c4c(c5c6ccccc6n2c5c31)CNC4=O (stereo not shown) [Compound I-3] | + |  |  |
